What is called inhibition is the share of the control response that was lost under treatment. A high value points to strong suppression. Usually EC50 stands for the concentration at which the effect is half-maximal. Lower therefore signals higher potency in that assay.

Molecules are shown by their SMILES. In brackets after ≈: the same amount, converted by molar mass.

In assay [1] the test system is Tobacco mosaic virus. The experiment in a line: Inhibition of Tobacco mosaic virus (TMV) replication using Nicotiana tabacum cv. K326 at 0.2 mg/mL. The format is functional.
For assay [2], the system named is Tobacco mosaic virus. Kind of assay: Inhibition of Tobacco mosaic virus (TMV) replication using Nicotiana tabacum cv. K326. The format is functional, organism-based.

As to `COc1cc(/C=C/C(=O)OC[C@H]2O[C@@H](Oc3ccc([C@@H]4OC[C@@H]5[C@H]4CO[C@H]5c4ccc(O)c(OC)c4)cc3OC)[C@H](O)[C@@H](OC(=O)/C=C/c3ccc(O)c(OC)c3)[C@@H]2O)ccc1O` [PINORESINOL-4'-O-[3',6'-O-(E)-DIFERULOYL]-BETA-D-GLUCOPYRANOSIDE], testing at 200 µg/mL in the assay on Tobacco mosaic virus [1] gave an inhibition of 47.7%. The molecule also returned an EC50 with Tobacco mosaic virus [2] of 240 µg/mL (≈ 275 µM).

Molecule `COc1cc(/C=C/C(=O)OC[C@H]2O[C@@H](Oc3ccc([C@@H]4OC[C@@H]5[C@H]4CO[C@H]5c4ccc(O)c(OC)c4)cc3OC)[C@H](O)[C@@H](O)[C@@H]2OC(=O)/C=C/c2ccc(O)c(OC)c2)ccc1O` [PINORESINOL-4'-O-[4',6'-O-(E)-DIFERULOYL]-BETA-D-GLUCOPYRANOSIDE] registered an inhibition at 200 µg/mL in the assay on Tobacco mosaic virus [1] of 50.3%. Besides, the half-maximal effective concentration (EC50) in the assay with Tobacco mosaic virus [2] is 190 µg/mL (≈ 218 µM).

Regarding `COc1cc(/C=C/C(=O)OC[C@H]2O[C@@H](Oc3ccc([C@@H]4OC[C@@H]5[C@H]4CO[C@H]5c4ccc(O)c(OC)c4)cc3OC)[C@H](O)[C@@H](O)[C@@H]2O)ccc1O` [PINORESINOL-4'-O-[6'-O-(E)-FERULOYL]-BETA-D-GLUCOPYRANOSIDE], in the assay on Tobacco mosaic virus [1], at 200 µg/mL the inhibition was 34.3%. `COc1cc(/C=C/C(=O)OC[C@H]2O[C@@H](Oc3c(OC)cc([C@@H]4OC[C@@H]5[C@H]4CO[C@H]5c4cc(OC)c(O)c(OC)c4)cc3OC)[C@H](O)[C@@H](O)[C@@H]2OC(=O)/C=C/c2ccc(O)c(OC)c2)ccc1O` [SYRINGARESINOL-4'-O-[4',6'-O-(E)-DIFERULOYL]-BETA-D-GLUCOPYRANOSIDE] had an inhibition at 200 µg/mL with Tobacco mosaic virus [1] of 56.1%. In the assay with Tobacco mosaic virus [2], it took 180 µg/mL (≈ 193 µM) to reach a half-maximal effect (EC50).
